Reference: US11739078B2, “Methods of inhibiting kinases” (INSILICO MEDICINE IP LIMITED, priority 2019, dated 2023)
Read-outs that look alike come from different tables or passages of the source.

Experiments:
TNIK = TNIK (Homo sapiens (Human), UniProt Q9UKE5); assay: TNIK enzymatic assay (radiometric kinase inhibition); format: biochemical
Method: The compounds were studied for function as TNIK inhibitors to generate the data of Table 1. […] (specific activity and concentration as required). The reaction is initiated by the addition of the Mg/ATP mix. After incubation for 40 minutes at room temperature, the reaction is stopped by the addition of phosphoric acid to a concentration of 0.5%.

MAP4K4 (h) = MAP4K4 (h) (Homo sapiens (Human), UniProt O95819); assay: MAP4K4 in vitro kinase assay (radiometric); format: biochemical; details: read-out: MAP4K4_IC50
Sequence of MAP4K4 (h) (O95819 whole entry): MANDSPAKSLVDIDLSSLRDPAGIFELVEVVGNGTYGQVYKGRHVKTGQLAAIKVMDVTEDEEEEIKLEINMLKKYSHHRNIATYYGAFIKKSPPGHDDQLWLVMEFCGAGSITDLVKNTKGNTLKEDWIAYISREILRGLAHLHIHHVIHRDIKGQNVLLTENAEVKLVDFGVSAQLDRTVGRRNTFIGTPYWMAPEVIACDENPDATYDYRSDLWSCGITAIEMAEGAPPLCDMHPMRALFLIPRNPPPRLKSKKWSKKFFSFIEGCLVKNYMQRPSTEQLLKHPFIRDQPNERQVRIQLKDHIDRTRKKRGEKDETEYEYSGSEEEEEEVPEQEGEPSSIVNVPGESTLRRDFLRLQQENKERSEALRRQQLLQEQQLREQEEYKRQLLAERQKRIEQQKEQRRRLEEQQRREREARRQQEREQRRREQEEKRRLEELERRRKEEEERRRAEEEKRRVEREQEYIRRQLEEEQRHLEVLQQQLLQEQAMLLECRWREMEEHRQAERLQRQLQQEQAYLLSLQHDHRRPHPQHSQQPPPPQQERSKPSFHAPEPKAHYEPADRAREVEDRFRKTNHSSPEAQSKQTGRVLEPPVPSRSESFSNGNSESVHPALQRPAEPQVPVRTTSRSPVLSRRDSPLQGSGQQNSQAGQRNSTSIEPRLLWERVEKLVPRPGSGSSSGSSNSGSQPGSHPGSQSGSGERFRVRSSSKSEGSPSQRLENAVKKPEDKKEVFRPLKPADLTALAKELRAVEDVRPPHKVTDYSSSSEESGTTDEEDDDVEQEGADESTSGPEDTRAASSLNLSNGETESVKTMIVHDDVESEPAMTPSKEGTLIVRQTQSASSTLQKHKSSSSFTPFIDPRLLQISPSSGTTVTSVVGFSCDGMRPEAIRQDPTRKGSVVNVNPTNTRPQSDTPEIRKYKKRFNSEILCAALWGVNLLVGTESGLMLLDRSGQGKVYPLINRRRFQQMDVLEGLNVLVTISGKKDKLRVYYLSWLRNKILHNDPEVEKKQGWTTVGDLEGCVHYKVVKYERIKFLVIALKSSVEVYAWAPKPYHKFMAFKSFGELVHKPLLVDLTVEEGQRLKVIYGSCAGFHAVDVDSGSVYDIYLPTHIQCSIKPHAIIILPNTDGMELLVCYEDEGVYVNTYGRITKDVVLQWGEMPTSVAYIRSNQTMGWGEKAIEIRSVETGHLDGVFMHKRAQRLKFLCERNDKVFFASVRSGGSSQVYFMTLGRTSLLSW
Method: (specific activity and concentration as required). The reaction is initiated by the addition of the Mg/ATP mix. After incubation for 40 minutes at room temperature, the reaction is stopped by the addition of phosphoric acid to a concentration of 0.5%.

[1] = TNIK enzymatic assay, Table 1, read-out: IC50

Sequence of TNIK (Q9UKE5 whole entry): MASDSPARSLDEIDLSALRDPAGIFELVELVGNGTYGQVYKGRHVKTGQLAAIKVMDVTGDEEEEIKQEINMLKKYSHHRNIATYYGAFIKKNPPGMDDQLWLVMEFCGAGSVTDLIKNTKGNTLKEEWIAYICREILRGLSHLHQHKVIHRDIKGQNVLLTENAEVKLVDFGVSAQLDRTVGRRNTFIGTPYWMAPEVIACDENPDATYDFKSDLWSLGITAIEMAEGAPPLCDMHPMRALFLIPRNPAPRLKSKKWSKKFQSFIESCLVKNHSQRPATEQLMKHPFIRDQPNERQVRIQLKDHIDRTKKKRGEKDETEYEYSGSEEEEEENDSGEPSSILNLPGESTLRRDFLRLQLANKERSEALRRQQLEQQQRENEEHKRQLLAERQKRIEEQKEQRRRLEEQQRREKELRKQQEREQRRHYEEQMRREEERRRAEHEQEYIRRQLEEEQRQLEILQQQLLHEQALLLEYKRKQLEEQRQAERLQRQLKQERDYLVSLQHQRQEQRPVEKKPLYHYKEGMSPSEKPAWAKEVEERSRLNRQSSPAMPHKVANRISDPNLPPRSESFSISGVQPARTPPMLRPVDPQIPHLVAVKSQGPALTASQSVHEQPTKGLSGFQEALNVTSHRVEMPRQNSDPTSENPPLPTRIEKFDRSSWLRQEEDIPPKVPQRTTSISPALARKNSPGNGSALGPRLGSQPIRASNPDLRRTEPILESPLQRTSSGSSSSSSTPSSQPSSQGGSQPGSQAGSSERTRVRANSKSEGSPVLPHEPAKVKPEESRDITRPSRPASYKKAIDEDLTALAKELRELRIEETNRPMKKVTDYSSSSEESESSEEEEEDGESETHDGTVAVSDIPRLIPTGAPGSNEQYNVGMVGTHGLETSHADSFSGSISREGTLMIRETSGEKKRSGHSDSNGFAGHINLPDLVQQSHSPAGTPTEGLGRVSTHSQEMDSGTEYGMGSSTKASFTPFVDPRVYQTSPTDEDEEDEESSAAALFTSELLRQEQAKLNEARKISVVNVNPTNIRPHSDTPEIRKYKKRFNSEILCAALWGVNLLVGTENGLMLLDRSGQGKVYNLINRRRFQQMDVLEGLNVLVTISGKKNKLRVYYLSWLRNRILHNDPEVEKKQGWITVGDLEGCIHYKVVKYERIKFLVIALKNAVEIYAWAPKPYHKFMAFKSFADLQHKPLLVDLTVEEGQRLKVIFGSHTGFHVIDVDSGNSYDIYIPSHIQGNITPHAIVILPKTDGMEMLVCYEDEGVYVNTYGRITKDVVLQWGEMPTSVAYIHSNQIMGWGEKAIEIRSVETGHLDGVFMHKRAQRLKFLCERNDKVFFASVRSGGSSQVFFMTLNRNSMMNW

| Structure (SMILES) | IC50 (TNIK; [1]) [nM] | IC50 (TNIK; read-out: TNIK_IC50) [nM] | IC50 (MAP4K4 (h)) [nM] |
| --- | --- | --- | --- |
| CCOC(=O)c1cccc(NC(=O)c2ccc(-c3c(-c4ccc(F)cc4)ncn3C3CCCC3)o2)c1 [Compound 22, ethyl 3-(5-(1-cyclopentyl-4-(4-fluorophenyl)-1H-imidazol-5-yl)furan-2-carboxamido)benzoate] | 483 | 483 | > 1000 |
| Cc1ccc(NC(=O)c2ccc(-c3c(-c4ccc(F)cc4)ncn3C3CCCC3)o2)c(C)c1 [Compound 32, 5-(1-cyclopentyl-4-(4-fluorophenyl)-1H-imidazol-5-yl)-N-(2,4-dimethylphenyl)furan-2-carboxamide] | 12 | 12 | 96.9 |
| Cc1ccccc1NC(=O)c1ccc(-c2c(-c3ccc(F)cc3)ncn2C2CCCC2)o1 [Compound 29, 5-(1-cyclopentyl-4-(4-fluorophenyl)-1H-imidazol-5-yl)-N-(o-tolyl)furan-2-carboxamide] | 62 | 62 | 115 |
| O=C(Nc1ccc(Br)cc1)c1ccc(-c2c(-c3ccc(F)cc3)ncn2C2CCCC2)o1 [Compound 49, N-(4-bromophenyl)-5-(1-cyclopentyl-4-(4-fluorophenyl)-1H-imidazol-5-yl)furan-2-carboxamide] | 152 | 152 | 436 |
| CC(=O)Nc1ccc(NC(=O)c2ccc(-c3c(-c4ccc(F)cc4)ncn3C3CCCC3)o2)cc1 [Compound 46, N-(4-acetamidophenyl)-5-(1-cyclopentyl-4-(4-fluorophenyl)-1H-imidazol-5-yl)furan-2-carboxamide] | 24 | 24 | 30.9 |
| O=C(Nc1ccc(Cl)cc1)c1ccc(-c2c(-c3ccc(F)cc3)ncn2C2CCCC2)o1 [Compound 15, N-(4-chlorophenyl)-5-(1-cyclopentyl-4-(4-fluorophenyl)-1H-imidazol-5-yl)furan-2-carboxamide] | 101 | 101 | 116 |
| COc1ccc(OC)c(NC(=O)c2ccc(-c3c(-c4ccc(F)cc4)ncn3C3CCCC3)o2)c1 [Compound 2, 5-(1-cyclopentyl-4-(4-fluorophenyl)-1H-imidazol-5-yl)-N-(2,5-dimethoxyphenyl)furan-2-carboxamide] | < 10 | 3.07 | 10.2 |
| O=C(Nc1ccccc1Br)c1ccc(-c2c(-c3ccc(F)cc3)ncn2C2CCCC2)o1 [Compound 13, N-(2-bromophenyl)-5-(1-cyclopentyl-4-(4-fluorophenyl)-1H-imidazol-5-yl)furan-2-carboxamide] | < 10 | 12 | 15.2 |
| CCc1cccc(NC(=O)c2ccc(-c3c(-c4ccc(F)cc4)ncn3C3CCCC3)o2)c1 [Compound 39, 5-(1-cyclopentyl-4-(4-fluorophenyl)-1H-imidazol-5-yl)-N-(3-ethylphenyl)furan-2-carboxamide] | 480 | 480 | > 1000 |
| COC(=O)c1ccccc1NC(=O)c1ccc(-c2c(-c3ccc(F)cc3)ncn2C2CCCC2)o1 [Compound 27, methyl 2-(5-(1-cyclopentyl-4-(4-fluorophenyl)-1H-imidazol-5-yl)furan-2-carboxamido)benzoate] | < 10 | 5.11 | 11.5 |
| Cc1cc(C)c(NC(=O)c2ccc(-c3c(-c4ccc(F)cc4)ncn3C3CCCC3)o2)c(C)c1 [Compound 34, 5-(1-cyclopentyl-4-(4-fluorophenyl)-1H-imidazol-5-yl)-N-mesitylfuran-2-carboxamide] | 319 | 319 | 240 |
| CCc1ccc(NC(=O)c2ccc(-c3c(-c4ccc(F)cc4)ncn3C3CCCC3)o2)cc1 [Compound 23, 5-(1-cyclopentyl-4-(4-fluorophenyl)-1H-imidazol-5-yl)-N-(4-ethylphenyl)furan-2-carboxamide] | 55 | 55 | 102 |
| Cc1cc(Cl)ccc1NC(=O)c1ccc(-c2c(-c3ccc(F)cc3)ncn2C2CCCC2)o1 [Compound 16, N-(4-chloro-2-methylphenyl)-5-(1-cyclopentyl-4-(4-fluorophenyl)-1H-imidazol-5-yl)furan-2-carboxamide] | 38 | 38 | 101 |
| CC(=O)c1cccc(NC(=O)c2ccc(-c3c(-c4ccc(F)cc4)ncn3C3CCCC3)o2)c1 [Compound 35, N-(3-acetylphenyl)-5-(1-cyclopentyl-4-(4-fluorophenyl)-1H-imidazol-5-yl)furan-2-carboxamide] | 151 | 151 | 274 |
| O=C(Nc1ccc(Cl)cc1F)c1ccc(-c2c(-c3ccc(F)cc3)ncn2C2CCCC2)o1 [Compound 42, N-(4-chloro-2-fluorophenyl)-5-(1-cyclopentyl-4-(4-fluorophenyl)-1H-imidazol-5-yl)furan-2-carboxamide] | 19 | 19 | 41.3 |
| CC(=O)c1ccc(NC(=O)c2ccc(-c3c(-c4ccc(F)cc4)ncn3C3CCCCC3)o2)cc1 [Compound 51, N-(4-acetylphenyl)-5-(1-cyclohexyl-4-(4-fluorophenyl)-1H-imidazol-5-yl)furan-2-carboxamide] | 57 | 57 | 126 |
| COc1ccc(NC(=O)c2ccc(-c3c(-c4ccc(F)cc4)ncn3C3CCCCC3)o2)cc1OC [Compound 52, 5-(1-cyclohexyl-4-(4-fluorophenyl)-1H-imidazol-5-yl)-N-(3,4-dimethoxyphenyl)furan-2-carboxamide] | 60 | 60 | 104 |
| CCOc1ccc(NC(=O)c2ccc(-c3c(-c4ccc(F)cc4)ncn3C3CCCC3)o2)cc1 [Compound 28, 5-(1-cyclopentyl-4-(4-fluorophenyl)-1H-imidazol-5-yl)-N-(4-ethoxyphenyl)furan-2-carboxamide] | 37 | 37 | 63.7 |
| O=C(Nc1ccc(F)cc1F)c1ccc(-c2c(-c3ccc(F)cc3)ncn2C2CCCC2)o1 [Compound 1, 5-(1-cyclopentyl-4-(4-fluorophenyl)-1H-imidazol-5-yl)-N-(2,4-difluorophenyl)furan-2-carboxamide] | 30 | 30 | 97.6 |
| Cc1ccc(-c2ncn(C3CCCCC3)c2-c2ccc(C(=O)Nc3ccccc3F)o2)cc1 [Compound 7, 5-(1-cyclohexyl-4-(p-tolyl)-1H-imidazol-5-yl)-N-(2-fluorophenyl)furan-2-carboxamide] | 1510 | 1510 | > 1000 |

Other lines, results leading:

| IC50 (TNIK; [1]) [nM] | IC50 (TNIK; read-out: TNIK_IC50) [nM] | IC50 (MAP4K4 (h)) [nM] | Structure (SMILES) |
| --- | --- | --- | --- |
| 25 | 25 | 46.9 | O=C(Nc1ccccc1F)c1ccc(-c2c(-c3ccc(F)cc3)ncn2C2CCCCC2)o1 [Compound 62, 5-(1-cyclohexyl-4-(4-fluorophenyl)-1H-imidazol-5-yl)-N-(2-fluorophenyl)furan-2-carboxamide] |
|  | 317 | > 1000 | O=C(Nc1c(O)cncc1F)c1ccc(-c2c(-c3ccc(F)cc3)ncn2C2COCC2(F)F)o1 (stereo not drawn) [Compound A-41, 5-(1-(4,4-difluorotetrahydrofuran-3-yl)-4-(4-fluorophenyl)-1H-imidazol-5-yl)-N-(3-fluoro-5-hydroxypyridin-4-yl)furan-2-carboxamide] |
| 62 | 62 | 175 | CCOc1ccc(NC(=O)c2ccc(-c3c(-c4ccc(F)cc4)ncn3C3CCCCC3)o2)cc1 [Compound 64, 5-(1-cyclohexyl-4-(4-fluorophenyl)-1H-imidazol-5-yl)-N-(4-ethoxyphenyl)furan-2-carboxamide] |
| 90 | 90 | 288 | Cc1ccc(NC(=O)c2ccc(-c3c(-c4ccc(F)cc4)ncn3C3CCCCC3)o2)cc1C [Compound 69, 5-(1-cyclohexyl-4-(4-fluorophenyl)-1H-imidazol-5-yl)-N-(3,4-dimethylphenyl)furan-2-carboxamide] |
| 936 | 936 | > 1000 | Cc1cc(C)c(NC(=O)c2ccc(-c3c(-c4ccc(F)cc4)ncn3C3CCCCC3)o2)c(C)c1 [Compound 70, 5-(1-cyclohexyl-4-(4-fluorophenyl)-1H-imidazol-5-yl)-N-mesitylfuran-2-carboxamide] |
|  | > 10000 | > 10000 | O=C(Nc1ccccc1F)c1ccc(-c2c(-c3cncnc3)ncn2C2CCCC2)o1 [Compound 94, 5-(1-cyclopentyl-4-(pyrimidin-5-yl)-1H-imidazol-5-yl)-N-(2-fluorophenyl)furan-2-carboxamide] |
| 326 | 326 | 300 | CCc1cccc(NC(=O)c2ccc(-c3c(-c4ccc(F)cc4)ncn3C3CCCCC3)o2)c1 [Compound 74, 5-(1-cyclohexyl-4-(4-fluorophenyl)-1H-imidazol-5-yl)-N-(3-ethylphenyl)furan-2-carboxamide] |
|  | 83.2 | 161 | O=C(Nc1ccncc1F)c1ccc(-c2c(-c3ccc(F)cc3)ncn2CC2CCOC2)o1 (stereo not drawn) [Compound A-36, 5-(4-(4-fluorophenyl)-1-((tetrahydrofuran-3-yl)methyl)-1H-imidazol-5-yl)-N-(3-fluoropyridin-4-yl)furan-2-carboxamide] |
| 27 | 27 | 62.2 | COc1ccc(C)cc1NC(=O)c1ccc(-c2c(-c3ccc(F)cc3)ncn2C2CCCCC2)o1 [Compound 77, 5-(1-cyclohexyl-4-(4-fluorophenyl)-1H-imidazol-5-yl)-N-(2-methoxy-5-methylphenyl)furan-2-carboxamide] |
| 48 | 48 | 270 | CC(C)c1ccc(NC(=O)c2ccc(-c3c(-c4ccc(F)cc4)ncn3C3CCCCC3)o2)cc1 [Compound 73, 5-(1-cyclohexyl-4-(4-fluorophenyl)-1H-imidazol-5-yl)-N-(4-isopropylphenyl)furan-2-carboxamide] |
